Data: the supplement of paper PMC10307832

Tests used:
Assay in all cases: relative viability (nuclei count vs DMSO), 5 days (fraction); higher = more cells survive
[1] = compound: Cn1cc(-c2cnn3c(N)c(Br)c([C@@H]4CCCNC4)nc23)cn1 + CC1(C)CCC(c2ccc(Cl)cc2)=C(CN2CCN(c3ccc(C(=O)NS(=O)(=O)c4ccc(N[C@H](CCN5CCOCC5)CSc5ccccc5)c(S(=O)(=O)C(F)(F)F)c4)cc3)CC2)C1 [Navitoclax] (partner 0.5 µM)
Summary of the method: (§1)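 Relative viability was taken as the ratio of nuclei in treated wells to nuclei in vehicle wells. Lung cancer cell lines in 1536-well plates received compounds by pin tool one day after seeding, either one drug alone or a fixed anchor-drug dose plus five library-drug doses (not always all listed) in √10 steps. Nuclei were counted on 4× images after 5 days of treatment, and values are medians of duplicate plates.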

[2] = compound: Cn1cc(-c2cnn3c(N)c(Br)c([C@@H]4CCCNC4)nc23)cn1 + C[C@@H](Oc1cc(-c2cnn(C3CCNCC3)c2)cnc1N)c1c(Cl)ccc(F)c1Cl [Crizotinib] (partner 1 µM)
Summary of the method: as §1

[3] = compound: Cn1cc(-c2cnn3c(N)c(Br)c([C@@H]4CCCNC4)nc23)cn1 + O=C(CCCCCCC(=O)Nc1ccccc1)NO [Vorinostat] (partner 1 µM)
Summary of the method: as §1

[4] = compound: Cn1cc(-c2cnn3c(N)c(Br)c([C@@H]4CCCNC4)nc23)cn1 + Cc1cc(Nc2cc(N3CCN(C)CC3)nc(Sc3ccc(NC(=O)C4CC4)cc3)n2)n[nH]1 [Tozasertib] (partner 0.1 µM)
Summary of the method: as §1

Cell Line | relative viability ([1]; first compound 0.05 µM) | relative viability ([1]; first compound 0.1581 µM) | relative viability ([1]; first compound 0.5 µM) | relative viability ([1]; first compound 1.581 µM) | relative viability ([1]; first compound 5 µM) | relative viability ([2]; first compound 0.05 µM) | relative viability ([2]; first compound 0.1581 µM) | relative viability ([2]; first compound 0.5 µM) | relative viability ([2]; first compound 1.581 µM) | relative viability ([2]; first compound 5 µM) | relative viability ([3]; first compound 0.05 µM) | relative viability ([3]; first compound 0.1581 µM) | relative viability ([3]; first compound 0.5 µM) | relative viability ([3]; first compound 1.581 µM) | relative viability ([3]; first compound 5 µM) | relative viability ([4]; first compound 0.05 µM) | relative viability ([4]; first compound 0.1581 µM) | relative viability ([4]; first compound 0.5 µM) | relative viability ([4]; first compound 1.581 µM) | relative viability ([4]; first compound 5 µM)
COR-L 105 | 0.742 | 0.693 | 0.649 | 0.713 | 0.454 | 0.739 | 0.722 | 0.713 | 0.535 | 0.462 | 0.921 | 0.723 | 0.756 | 0.526 | 0.616 | 0.31 | 0.4 | 0.293 | 0.312 | 0.321
LK-2 | 0.915 | 0.711 | 0.699 | 0.627 | 0.555 | 0.23 | 0.216 | 0.188 | 0.243 | 0.232 | 0.276 | 0.351 | 0.236 | 0.249 | 0.162 | 0.196 | 0.17 | 0.162 |  | 0.161
NCI-H727 | 0.4 | 0.43 | 0.333 | 0.463 | 0.212 | 0.912 | 0.965 | 0.664 | 0.648 | 0.353 | 1.04 | 1.17 | 1.33 | 1.15 | 1.13 | 0.695 | 0.489 | 0.806 | 0.503 | 0.468
RERF-LC-KJ | 1.2 | 0.927 | 0.884 | 0.707 | 0.678 | 0.828 | 0.958 | 0.775 | 0.788 | 0.8 | 0.636 | 0.808 | 0.802 | 0.599 | 0.6 | 0.52 | 0.502 | 0.501 | 0.346 | 0.384
NCI-H2023 | 1.06 | 0.727 | 0.789 | 0.304 | 0.192 | 0.702 | 0.428 | 0.436 | 0.272 | 0.172 | 0.65 | 0.349 | 0.428 | 0.177 | 0.097 | 0.361 | 0.254 | 0.238 | 0.15 | 0.122
NCI-H322M | 1.08 | 1.24 | 1.18 | 1.2 | 1.19 | 0.874 | 0.962 | 0.884 | 0.785 | 0.576 | 0.871 | 0.831 | 0.754 | 0.626 | 0.394 | 0.468 | 0.315 | 0.406 | 0.359 | 0.294
NCI-H1666 | 0.906 | 0.956 | 0.871 | 0.829 | 0.842 | 1.03 | 0.906 | 1.02 | 1 | 0.869 | 1.16 | 1.03 | 0.886 | 0.906 | 0.844 | 0.608 | 0.589 | 0.606 | 0.522 | 0.511
NCI-H1648 |  |  |  |  |  |  |  |  |  |  | 0.449 | 0.296 | 0.313 | 0.327 | 0.463 | 0.395 | 0.436 |  | 0.377 | 0.381
NCI-H2087 | 1.02 | 1.14 | 1.04 | 1.05 | 0.948 | 1.01 | 1.27 | 0.939 | 0.983 | 0.954 | 0.865 | 0.891 | 0.341 | 0.424 | 0.653 | 0.222 | 0.253 | 0.241 | 0.263 | 0.174
LU99A | 0.962 | 0.875 | 0.801 | 0.699 | 0.601 | 0.55 | 0.573 | 0.551 | 0.482 | 0.31 | 0.46 | 0.469 | 0.452 | 0.36 | 0.216 | 0.271 | 0.243 | 0.258 | 0.243 | 0.193
HCC-366 | 1.11 | 1.07 | 1.09 | 0.918 | 0.771 | 0.53 | 0.737 | 0.474 | 0.405 | 0.209 | 0.333 | 0.402 | 0.337 | 0.301 | 0.211 | 0.144 | 0.703 | 0.169 | 0.0808 | 0.0856
EKVX | 0.828 | 1.13 | 0.911 | 0.918 | 0.782 | 0.942 | 1.27 | 1.09 | 0.821 | 0.945 | 0.736 | 0.723 | 0.712 | 0.638 | 0.691 | 0.423 | 0.449 | 0.448 | 0.462 | 0.344
NCI-H522 |  |  |  |  |  |  |  |  |  |  | 0.845 | 0.936 | 0.871 | 0.842 | 0.797 | 0.575 | 0.638 | 0.6 | 0.577 | 0.543
NCI-H1755 | 1.12 | 1.03 | 0.961 | 0.994 | 0.969 | 0.988 | 1.03 | 0.932 | 0.845 | 0.602 | 0.869 | 0.828 | 0.653 | 0.642 | 0.503 | 0.715 | 0.619 | 0.648 | 0.54 | 0.489
NCI-H647 | 1.25 | 1.11 | 0.902 | 0.853 | 0.406 | 1.27 | 1.33 | 0.883 | 0.675 | 0.232 | 0.625 | 0.607 | 0.522 | 0.256 | 0.15 | 0.329 | 0.312 | 0.0065 | 0.182 | 0.173
LC-2-ad | 0.394 | 0.606 | 0.395 | 0.423 | 0.429 | 0.503 | 0.439 | 0.419 | 0.447 | 0.426 | 0.683 | 0.808 | 0.662 | 0.76 | 0.735 | 0.39 | 0.382 | 0.442 | 0.464 | 0.355

Cell Line | relative viability ([1]; first compound 0.05 µM) | relative viability ([1]; first compound 0.1581 µM) | relative viability ([1]; first compound 0.5 µM) | relative viability ([1]; first compound 1.581 µM) | relative viability ([1]; first compound 5 µM) | relative viability ([2]; first compound 0.05 µM) | relative viability ([2]; first compound 0.1581 µM) | relative viability ([2]; first compound 0.5 µM) | relative viability ([2]; first compound 1.581 µM) | relative viability ([2]; first compound 5 µM) | relative viability ([3]; first compound 0.05 µM) | relative viability ([3]; first compound 0.1581 µM) | relative viability ([3]; first compound 0.5 µM) | relative viability ([3]; first compound 1.581 µM) | relative viability ([3]; first compound 5 µM) | relative viability ([4]; first compound 0.05 µM) | relative viability ([4]; first compound 0.1581 µM) | relative viability ([4]; first compound 0.5 µM) | relative viability ([4]; first compound 1.581 µM) | relative viability ([4]; first compound 5 µM)
NCI-H1793 | 0.43 | 0.517 | 0.386 | 0.383 | 0.292 |  |  |  |  |  | 0.839 | 0.717 | 0.856 | 0.469 | 0.181 | 0.39 | 0.806 | 0.282 | 0.341 | 0.2
HCC-827 | 1.03 | 1.04 | 1.04 | 1.01 | 0.99 | 0.929 | 1 | 0.909 | 0.899 | 0.871 | 0.741 | 0.929 | 1.02 | 0.917 | 0.797 | 0.426 | 0.392 | 0.439 | 0.516 | 0.394
HCC-78 | 0.851 | 0.794 | 0.796 | 0.737 | 0.56 | 0.323 | 0.391 | 0.378 | 0.344 | 0.218 | 0.431 | 0.609 | 0.478 | 0.41 | 0.416 |  | 0.456 | 0.404 | 0.407 | 0.279
NCI-H2085 | 1.3 | 1.13 | 1.18 | 1.09 | 0.943 | 0.846 | 1.01 | 0.733 | 0.794 | 0.646 | 0.801 | 0.761 | 0.843 | 0.725 | 0.61 | 0.807 | 0.928 | 0.866 | 0.811 | 0.736
NCI-H2342 |  |  |  |  |  |  |  |  |  |  | 0.636 | 0.8 | 0.824 | 0.68 | 0.712 | 0.547 | 0.522 | 0.531 | 0.52 | 0.408
ABC-1 |  |  |  |  |  | 1.16 | 0.935 | 1.06 | 0.563 | 0.316 |  | 0.955 | 1.04 | 1.02 | 0.356 | 0.159 | 0.156 | 0.219 | 0.127 | 0.136
NCI-H661 |  |  |  |  |  | 1.15 | 1.23 | 1.12 | 1.05 | 0.98 | 0.829 | 0.82 | 0.833 | 0.736 | 0.63 | 0.344 | 0.343 | 0.371 | 0.372 | 0.379
NCI-H358 |  |  |  |  |  | 0.586 | 0.575 | 0.375 | 0.655 | 0.339 | 0.748 | 0.732 | 0.422 | 0.455 | 0.302 | 0.0994 | 0.103 | 0.0971 | 0.0967 | 0.117
EBC-1 | 0.39 | 0.347 | 0.286 | 0.304 | 0.238 | 0.179 | 0.179 | 0.186 | 0.174 | 0.17 |  |  |  |  |  |  |  |  |  | 
NCI-H650 |  |  |  |  |  | 0.778 | 0.708 | 0.706 | 0.627 | 0.606 | 0.412 | 0.514 | 0.384 | 0.447 | 0.337 | 0.732 | 0.753 | 0.821 | 0.654 | 0.603
NCI-H1792 | 0.35 | 0.674 | 0.322 | 0.366 | 0.677 | 0.843 | 0.861 | 0.861 | 0.656 | 0.582 |  |  |  |  |  |  |  |  |  | 
A549 | 1.25 | 1.3 | 1.14 | 0.916 | 0.917 | 0.783 | 0.962 | 0.778 | 0.531 | 0.492 |  |  |  |  |  |  |  |  |  | 
NCI-H1703 | 1.08 | 0.441 | 0.309 | 0.147 | 0.122 | 0.671 | 0.363 | 0.325 | 0.18 | 0.134 |  |  |  |  |  |  |  |  |  | 
LCLC-103H |  |  |  |  |  | 1.04 | 1.11 | 1.13 | 1.03 | 1.1 | 0.738 | 0.879 | 0.824 | 0.615 | 0.597 | 0.543 | 0.57 | 0.469 | 0.364 | 0.313
NCI-H1563 |  |  |  |  |  | 0.78 | 0.812 | 0.933 | 0.782 | 0.8 |  |  |  |  |  |  |  |  |  | 
NCI-H1395 | 1.18 | 0.698 | 0.953 | 0.68 | 0.423 |  |  |  |  |  | 0.533 | 0.427 | 0.556 | 0.49 | 0.317 | 0.804 | 0.68 | 0.789 | 0.543 | 0.436
